Source: patent publication US20250066388A1, “1,3,4,7-TETRAHYDRO-2H-PYRROLO[3',2':5,6]PYRIDO[2,3-B][1,4]OXAZEPINE BCL-2 INHIBITORS” (AbbVie Inc., priority 2022, published 2025)

What was measured:
Bcl-xL protein = Bcl-xL protein (Homo sapiens (Human), UniProt Q07817); experiment: TR-FRET binding assay, Bcl-xL; details: F-Bak peptide probe
Experimental: (§1) Determination of the utility of compounds having Formula (I) or Formula (II) as binders to and inhibitors of anti-apoptotic Bcl-2 proteins was performed using the Time Resolved-Fluorescence Resonance Energy Transfer (TR-FRET) Assay. Tb-anti-GST antibody was purchased from Invitrogen (Catalog No. PV4216).
A human Bcl-xL encoding sequence was cloned into a pET41A vector. The protein was expressed with E. coli. BL21(DE3)-T1R strain in OETB autoinduction medium at 30° C. for 25 hours. The cell pellets were resuspended in lysis buffer (50 mM Tris, 140 mM NaCl, 1 mM DTT, 10% Glycerol, 0.1% Triton X-100, pH 7.5) and lysed with Microfluidizer. The Bcl-xL protein in clarified cell-lysate was purified with GST affinity chromatography. The eluate was dialyzed in the storage buffer (1×PBS, 10% Glycerol, 2 mM DTT, 1 mM Sodium Azide, pH 7.4) and stored at −80° C.
(§2) […] of a protein (Bcl-2 or Bcl-xL)/probe/antibody mixture pre-equilibrated for one hour in assay buffer was added to each well at final concentrations listed in Table 6 below.
(§3) The samples were then mixed on a shaker for 1 minute and equilibrated for an additional 3 hours at room temperature. For each assay plate, a probe/antibody and protein/antibody/probe mixture were included as a negative and a positive control, respectively. Fluorescence was measured on the Envision (Perkin Elmer) using a 340/35 nm excitation filter and 520/525 (F-Bak) and 495/510 nm (Tb-labeled anti-GST antibody) emission filters. Inhibition constants (Ki) were determined using Wang's equation (Wang FEBS Lett. 1995, 360, 111-114). The TR-FRET assay can be performed in the presence of varying concentrations of human serum (HS) to determine apparent half maximal inhibitory concentration (IC50) after HS protein binding.
(§4) Inhibition constants were determined using Wang's equation (Wang FEBS Lett. 1995, 360:111-4).

Bcl-2 protein = Bcl-2 protein (Homo sapiens (Human), UniProt P10415); experiment: TR-FRET binding assay, Bcl-2; details: F-Bak peptide probe, GST-Bcl-2
Bcl-2 protein, sequence (P10415 other isoform, or with tags, fused parts or gaps): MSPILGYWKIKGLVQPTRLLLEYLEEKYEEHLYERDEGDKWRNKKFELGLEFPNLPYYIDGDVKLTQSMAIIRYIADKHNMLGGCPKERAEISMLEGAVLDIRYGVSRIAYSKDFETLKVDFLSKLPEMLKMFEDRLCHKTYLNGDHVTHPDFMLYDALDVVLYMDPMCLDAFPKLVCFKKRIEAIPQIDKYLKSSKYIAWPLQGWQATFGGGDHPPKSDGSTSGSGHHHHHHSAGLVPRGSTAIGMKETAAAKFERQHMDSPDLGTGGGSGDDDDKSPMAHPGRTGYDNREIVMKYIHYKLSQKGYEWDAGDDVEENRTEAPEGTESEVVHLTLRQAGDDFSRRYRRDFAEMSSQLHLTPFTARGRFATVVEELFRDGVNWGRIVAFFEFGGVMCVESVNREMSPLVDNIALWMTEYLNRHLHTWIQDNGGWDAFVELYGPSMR
Experimental: as §1
A Bcl-2 human encoding sequence was cloned into a pET41A vector (Novagen). The protein was expressed with E. coli. BL21(DE3)-T1R strain in OETB autoinduction medium at 30° C. for 25 hours. The cell pellets were resuspended in lysis buffer (50 mM Tris, 140 mM NaCl, 1 mM DTT, 10% Glycerol, 2 mM MgCl2, pH 7.3) and lysed with Microfluidizer. The Bcl-2 protein in clarified cell-lysate was purified with affinity chromatography (GST and Ni-NTA). The eluate was loaded onto a Superdex 75 column and further purified with a Q Sepharose column. The protein was purified on a phenyl hydrophobic interaction column and dialyzed in the storage buffer (50 mM Tris, 50 mM NaCl, 2 mM DTT, pH 7.5) and stored at −80° C.
as §2, §3, §4

Molt-4 cells = experiment: Cell viability counter screen (CellTiter-Glo) in Molt-4 cells; format: cell-based; details: 24 hours, 10% Human Serum
Experimental: The acute lymphoblastic leukemia (ALL) human cell line RS4;11 (ATCC, Manassas VA) was used as the primary human cell line to assess the cellular activity of compound of the present Examples in vitro and their efficacy in vivo. […] The acute lymphoblastic leukemia cell line Molt-4, which is derived from immature T-lymphoid cells (T-ALL), was used as a counter screen assay.
3000 Cells (0.1×10^6/mL) were seeded in each well of 384-well plate and were treated for 24 hours in a humidified chamber with 5% CO2. Cell viability was determined by CellTiter-Glo as described by the manufacturer's instructions (Promega Corporation, Madison, WI, USA).

Bcl-xL protein, sequence (Q07817 other isoform, or with tags, fused parts or gaps): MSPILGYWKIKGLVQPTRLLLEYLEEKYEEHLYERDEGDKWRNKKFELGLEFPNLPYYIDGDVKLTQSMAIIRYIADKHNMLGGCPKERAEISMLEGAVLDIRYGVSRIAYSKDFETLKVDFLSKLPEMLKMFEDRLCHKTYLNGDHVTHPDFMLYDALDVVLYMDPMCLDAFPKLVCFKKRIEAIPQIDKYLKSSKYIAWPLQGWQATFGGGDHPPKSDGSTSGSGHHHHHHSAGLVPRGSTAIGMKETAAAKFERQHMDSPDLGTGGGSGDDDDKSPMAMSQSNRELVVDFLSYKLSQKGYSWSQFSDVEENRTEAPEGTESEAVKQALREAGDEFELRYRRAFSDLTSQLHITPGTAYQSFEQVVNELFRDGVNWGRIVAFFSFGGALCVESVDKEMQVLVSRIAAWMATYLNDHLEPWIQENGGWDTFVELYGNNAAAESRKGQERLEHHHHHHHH

Q: Which results are given for COCCN1CCC(F)(COc2ncc(S(=O)(=O)NC(=O)c3ccc(N4CCN5CC6=C(c7ccc(Cl)cc7)CC(C)(C)C[C@H]6OCCCOC[C@@H]5C4)cc3N3CCCOc4nc5[nH]ccc5cc43)cc2Cl)CC1 [Example 22, N-((5-chloro-6-((4-fluoro-1-(2-methoxyethyl)piperidin-4-yl)methoxy)pyridin-3-yl)sulfonyl)-4-((4aS,10aR)-14-(4-chlorophenyl)-12,12-dimethyl-1,2,4a,5,8,9,10a,11,13,15-decahydro-7H,12H-benzo[f]pyrazino[2,1-c][1,8]dioxa[4]azacycloundecin-3(4H)-yl)-2-(3,4-dihydro-2H-pyrrolo[3′,2′:5,6]pyrido[2,3-b][1,4]oxazepin-1(7H)-yl)benzamide]?
A: Ki (Bcl-xL protein): 14.7 nM; Ki (Bcl-2 protein): 0.339 nM

Q: Which EC50 (Molt-4 cells) does the source give for C[C@H]1CCC(CNc2ccc(S(=O)(=O)NC(=O)c3ccc(N4CCN5CC6=C(c7ccc(Cl)cc7)CC(C)(C)C[C@H]6OCCCOCC5C4)cc3N3CCCOc4nc5[nH]ccc5cc43)cc2[N+](=O)[O-])OC1 (stereo partly drawn) [Example 23, 4-((4aS,10aR)-14-(4-chlorophenyl)-12,12-dimethyl-1,2,4a,5,8,9,10a,11,13,15-decahydro-7H,12H-benzo[f]pyrazino[2,1-c][1,8]dioxa[4]azacycloundecin-3(4H)-yl)-2-(3,4-dihydro-2H-pyrrolo[3′,2′:5,6]pyrido[2,3-b][1,4]oxazepin-1(7H)-yl)-N-((4-((((2R,5S)-5-methyltetrahydro-2H-pyran-2-yl)methyl)amino)-3-nitrophenyl)sulfonyl)benzamide] here?
A: Its EC50 is > 10000 nM.

Q: What about the Ki (Bcl-xL protein) of the same compound?
A: Its Ki is 29.7 nM.

Q: What about the Ki (Bcl-2 protein) of the same compound?
A: The Ki was 0.634 nM.

Q: How did the EC50 (Molt-4 cells) turn out when COC1(CNc2ccc(S(=O)(=O)NC(=O)c3ccc(N4CCN5CC6=C(c7ccc(Cl)cc7)CC(C)(C)C[C@H]6OCCCOC[C@@H]5C4)cc3N3CCCOc4nc5[nH]ccc5cc43)cc2[N+](=O)[O-])CCOCC1 [Example 26, 4-((4aS,10aR)-14-(4-chlorophenyl)-12,12-dimethyl-1,2,4a,5,8,9,10a,11,13,15-decahydro-7H,12H-benzo[f]pyrazino[2,1-c][1,8]dioxa[4]azacycloundecin-3(4H)-yl)-2-(3,4-dihydro-2H-pyrrolo[3′,2′:5,6]pyrido[2,3-b][1,4]oxazepin-1(7H)-yl)-N-((4-(((4-methoxytetrahydro-2H-pyran-4-yl)methyl)amino)-3-nitrophenyl)sulfonyl)benzamide] was run?
A: The EC50 was > 10000 nM.

Q: What about the Ki (Bcl-xL protein) of the same compound?
A: The Ki was 40.3 nM.

Q: What about the Ki (Bcl-2 protein) of the same compound?
A: The Ki was 2.09 nM.

Q: With CC1(C)CC(c2ccc(Cl)cc2)=C2CN3CCN(c4ccc(C(=O)NS(=O)(=O)c5ccc(NC[C@@H]6CC[C@@H](O)CO6)c([N+](=O)[O-])c5)c(N5CCCOc6nc7[nH]ccc7cc65)c4)C[C@H]3COCCCO[C@@H]2C1 [Example 27, 4-((4aS,10aR)-14-(4-chlorophenyl)-12,12-dimethyl-1,2,4a,5,8,9,10a,11,13,15-decahydro-7H,12H-benzo[f]pyrazino[2,1-c][1,8]dioxa[4]azacycloundecin-3(4H)-yl)-2-(3,4-dihydro-2H-pyrrolo[3′,2′:5,6]pyrido[2,3-b][1,4]oxazepin-1(7H)-yl)-N-((4-((((2S,5R)-5-hydroxytetrahydro-2H-pyran-2-yl)methyl)amino)-3-nitrophenyl)sulfonyl)benzamide] as the compound, how does the Ki (Bcl-xL protein) read?
A: Its Ki is 7.41 nM.

Q: And the Ki (Bcl-2 protein)?
A: Its Ki is 1.72 nM.

Q: Which Ki (Bcl-xL protein) does the source give for COC1CO[C@H](CNc2ccc(S(=O)(=O)NC(=O)c3ccc(N4CCN5CC6=C(c7ccc(Cl)cc7)CC(C)(C)C[C@H]6OCCCOC[C@@H]5C4)cc3N3CCCOc4nc5[nH]ccc5cc43)cc2[N+](=O)[O-])C1 (stereo partly drawn) [Example 29, 4-((4aS,10aR)-14-(4-chlorophenyl)-12,12-dimethyl-1,2,4a,5,8,9,10a,11,13,15-decahydro-7H,12H-benzo[f]pyrazino[2,1-c][1,8]dioxa[4]azacycloundecin-3(4H)-yl)-2-(3,4-dihydro-2H-pyrrolo[3′,2′:5,6]pyrido[2,3-b][1,4]oxazepin-1(7H)-yl)-N-((4-((((2S)-4-methoxytetrahydrofuran-2-yl)methyl)amino)-3-nitrophenyl)sulfonyl)benzamide] here?
A: The Ki was 22.5 nM.

Q: What about the Ki (Bcl-2 protein) of the same compound?
A: Its Ki is 2.59 nM.

Q: With CC1(C)CC(c2ccc(Cl)cc2)=C2CN3CCN(c4ccc(C(=O)NS(=O)(=O)c5ccc(NC[C@H]6CC[C@](C)(O)CC6)c([N+](=O)[O-])c5)c(N5CCCOc6nc7[nH]ccc7cc65)c4)C[C@H]3COCCCO[C@@H]2C1 [Example 32, 4-((4aS,10aR)-14-(4-chlorophenyl)-12,12-dimethyl-1,2,4a,5,8,9,10a,11,13,15-decahydro-7H,12H-benzo[f]pyrazino[2,1-c][1,8]dioxa[4]azacycloundecin-3(4H)-yl)-2-(3,4-dihydro-2H-pyrrolo[3′,2′:5,6]pyrido[2,3-b][1,4]oxazepin-1(7H)-yl)-N-((4-((((1r,4r)-4-hydroxy-4-methylcyclohexyl)methyl)amino)-3-nitrophenyl)sulfonyl)benzamide] as the compound, how does the Ki (Bcl-xL protein) read?
A: The Ki was 15.8 nM.

Q: And the Ki (Bcl-2 protein)?
A: The Ki was 0.397 nM.

Q: What does the source list for COCCO[C@H]1CC[C@H](CNc2ccc(S(=O)(=O)NC(=O)c3ccc(N4CCN5CC6=C(c7ccc(Cl)cc7)CC(C)(C)C[C@H]6OCCCOC[C@@H]5C4)cc3N3CCCOc4nc5[nH]ccc5cc43)cc2[N+](=O)[O-])OC1 [Example 35, 4-((4aS,10aR)-14-(4-chlorophenyl)-12,12-dimethyl-1,2,4a,5,8,9,10a,11,13,15-decahydro-7H,12H-benzo[f]pyrazino[2,1-c][1,8]dioxa[4]azacycloundecin-3(4H)-yl)-2-(3,4-dihydro-2H-pyrrolo[3′,2′:5,6]pyrido[2,3-b][1,4]oxazepin-1(7H)-yl)-N-((4-((((2R,5S)-5-(2-methoxyethoxy)tetrahydro-2H-pyran-2-yl)methyl)amino)-3-nitrophenyl)sulfonyl)benzamide]?
A: Ki (Bcl-xL protein): 23.1 nM; Ki (Bcl-2 protein): 0.0891 nM

Q: For CC1(C)CC(c2ccc(Cl)cc2)=C2CN3CCN(c4ccc(C(=O)NS(=O)(=O)c5cnc(OC[C@H]6CC[C@](C)(O)CC6)c(Cl)c5)c(N5CCCOc6nc7[nH]ccc7cc65)c4)C[C@H]3COCCCO[C@@H]2C1 [Example 42, N-((5-chloro-6-(((1r,4r)-4-hydroxy-4-methylcyclohexyl)methoxy)pyridin-3-yl)sulfonyl)-4-((4aS,10aR)-14-(4-chlorophenyl)-12,12-dimethyl-1,2,4a,5,8,9,10a,11,13,15-decahydro-7H,12H-benzo[f]pyrazino[2,1-c][1,8]dioxa[4]azacycloundecin-3(4H)-yl)-2-(3,4-dihydro-2H-pyrrolo[3′,2′:5,6]pyrido[2,3-b][1,4]oxazepin-1(7H)-yl)benzamide], which EC50 (Molt-4 cells) is on record?
A: The EC50 was > 10000 nM.

Q: With CC1(C)CC(c2ccc(Cl)cc2)=C2CN3CCN(c4ccc(C(=O)NS(=O)(=O)c5ccc(OC[C@H]6CC[C@](C)(O)CC6)c(Cl)c5)c(N5CCCOc6nc7[nH]ccc7cc65)c4)C[C@H]3COCCCO[C@@H]2C1 [Example 43, N-((3-chloro-4-(((1r,4r)-4-hydroxy-4-methylcyclohexyl)methoxy)phenyl)sulfonyl)-4-((4aS,10aR)-14-(4-chlorophenyl)-12,12-dimethyl-1,2,4a,5,8,9,10a,11,13,15-decahydro-7H,12H-benzo[f]pyrazino[2,1-c][1,8]dioxa[4]azacycloundecin-3(4H)-yl)-2-(3,4-dihydro-2H-pyrrolo[3′,2′:5,6]pyrido[2,3-b][1,4]oxazepin-1(7H)-yl)benzamide] as the compound, how does the EC50 (Molt-4 cells) read?
A: Its EC50 is > 10000 nM.

Q: For CC1(C)CC(c2ccc(Cl)cc2)=C2CN3CCN(c4ccc(C(=O)NS(=O)(=O)c5cnc(OC[C@H]6CC[C@@](C)(O)CC6)c(Cl)c5)c(N5CCCOc6nc7[nH]ccc7cc65)c4)C[C@H]3COCCCO[C@@H]2C1 [Example 50, N-((5-chloro-6-(((1s,4s)-4-hydroxy-4-methylcyclohexyl)methoxy)pyridin-3-yl)sulfonyl)-4-((4aS,10aR)-14-(4-chlorophenyl)-12,12-dimethyl-1,2,4a,5,8,9,10a,11,13,15-decahydro-7H,12H-benzo[f]pyrazino[2,1-c][1,8]dioxa[4]azacycloundecin-3(4H)-yl)-2-(3,4-dihydro-2H-pyrrolo[3′,2′:5,6]pyrido[2,3-b][1,4]oxazepin-1(7H)-yl)benzamide], which EC50 (Molt-4 cells) is on record?
A: The EC50 was > 10000 nM.
